Measurements from patent US12371405B1, “Isoindol-sulfilimine compound and use as a sigma-2 receptor inhibitor thereof” (SHANGHAI UNIVERSITY OF MEDICINE AND HEALTH SCIENCES, priority 2024, dated 2025).
pIC50, pKi: −log10 of the molar value.

How the values were obtained:
[1] = test system: cerebrospinal fluid β-amyloid (aβ); details: at 1 h after administration; cited from earlier work
sigma-2 receptor [2] = molecular target: T1, sigma-2 receptor (Homo sapiens, UniProt Q5BJF2); details: cited from earlier work
T1 sequence (Q5BJF2 whole entry, species assumed): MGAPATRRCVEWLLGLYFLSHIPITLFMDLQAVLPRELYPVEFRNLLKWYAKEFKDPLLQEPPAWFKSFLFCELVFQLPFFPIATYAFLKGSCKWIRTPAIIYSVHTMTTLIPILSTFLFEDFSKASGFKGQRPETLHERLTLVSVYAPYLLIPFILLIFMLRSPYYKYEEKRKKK

[3] = cited from earlier work
sigma-1 receptor = sigma-1 receptor (Homo sapiens, UniProt Q99720); assay: Sigma1 binding assay (3H-DTG radioligand, cell membrane); details: sigma-1R cell membrane, 2 hours at room temperature; for pIC50: read-out: Sigma1 Binding Assay Summary IC50; for pKi: read-out: Sigma1 Binding Assay Summary Ki
sigma-1 receptor, sequence (Q99720 whole entry): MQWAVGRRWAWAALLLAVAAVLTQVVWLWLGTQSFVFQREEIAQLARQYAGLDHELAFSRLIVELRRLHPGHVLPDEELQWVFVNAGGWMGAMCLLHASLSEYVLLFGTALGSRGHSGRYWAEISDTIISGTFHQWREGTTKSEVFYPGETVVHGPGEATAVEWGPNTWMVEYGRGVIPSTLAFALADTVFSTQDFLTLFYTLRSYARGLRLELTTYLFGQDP
Experimental: (§1) The pharmacodynamic test methods employed in this embodiment are those known to those skilled in the art; the sigma-2 receptor inhibitory activity assay kit employed in this embodiment is commercially available to those skilled in the art. sigmal/sigma-2 receptor affinity activity test:
(§2) In a 96-well plate, eight 4-fold dilutions of the test and reference compounds were made, and 1 μL of each compound was added to each well, and the wells were rearranged. The reference compound Haloperidol was added at a starting concentration of 1 μM, 1 μL of DMSO was added to the high signal control wells (High control), and 1 μL of Haloperidol was added to the low signal control wells (Low control) at a concentration of 200 μM (final concentration of 1 μM), and 100 μL of desired concentration of sigma-1R or sigma-2R cell membrane, diluted in 50 mM Tris-HCl (pH 7.4, Sigma, Cat: T1503-1 KG) was added to each well and 100 μL of desired concentration of 3H-DTG diluted in 50 mM Tris-HCl (pH 7.4) was added to each well, the 96-well plate was sealed, and incubated for 2 hours at room temperature on a shaker at 300 rpm. Simultaneously, GF/C filter plates (PerkinElmer, Cat: NET986250UC) were soaked with 0.3% PEI (Poly ethyleneimine, Sigma, Cat: P3143). After incubation, the cells were collected onto GF/C filter plates with a cell collector (PerkinElmer, model: C961961), washed 4 times with 50 mM Tris-HCl (pH 7.4) wash buffer, and then dried in an oven at 50° C. for 1 h. The bottom of the dried GF/C filter plates were sealed with a membrane, and 50 μL of scintillation solution was added into each well and sealed, and the cells were read by using a Microbeta (PerkinElmer, model: 2450 Microplate Counter). The percentage of activity was calculated using Microsoft Excel software with the formula: % Activity=100×(Sample RawValue−High Control Average)/(Low Control Average-High Control Average), using GraphPad Prism 5 data analysis software. The Dose-response-Stimulation-log [antagonist] vs. response-Variable slope model was selected for fitting analysis to obtain the IC50 value of each tested sample, and the results are shown in Table 1.

sigma-2 receptor [4] = molecular target: T1, sigma-2 receptor; assay: Sigma 2 binding assay (3H-DTG radioligand, cell membrane); details: sigma-2R cell membrane, 2 hours at room temperature; for pIC50: read-out: Sigma 2 Binding Assay Summary IC50; for pKi: read-out: Sigma 2 Binding Assay Summary Ki
Experimental: as §1, §2

Compound	concentration of cerebrospinal fluid β-amyloid (aβ) [1]	sigma-1 and sigma-2 receptor selectivity (sigma-2 receptor [2])	oral bioavailability [3]	pIC50 (sigma-1 receptor)	pKi (sigma-1 receptor)	pIC50 (sigma-2 receptor [4])	pKi (sigma-2 receptor [4])
CC(C)(C)Oc1cc(CCC(C)(C)N2Cc3ccc(S(C)(=O)=O)cc3C2)ccc1O [CT1812]	increase	poor	poor	–	–	–	–
CC(=O)N=S(C)(=O)c1ccc2c(c1)CN(C(C)(C)CCc1ccc(O)c(OC(C)(C)C)c1)C2 (stereo not shown) [Compound 1, N-((2-(4-(3-(tert-butoxy)-4-hydroxyphenyl)-2-methylbutan-2-yl)isoindol-5-yl)(methyl)(oxo)-λ6-thioimido)acetamide]	–	–	–	< 6.00	< 6.00	< 7.00	< 7.00
CCC(=O)N=S(C)(=O)c1ccc2c(c1)CN(C(C)(C)CCc1ccc(O)c(OC(C)(C)C)c1)C2 (stereo not shown) [Compound 2, N-((2-(4-(3-(tert-butoxy)-4-hydroxyphenyl)-2-methylbutan-2-yl)isoindol-5-yl)(methyl)(oxo)-26-thioimido) propionamide]	–	–	–	< 6.00	< 6.00	< 7.00	< 7.00
CCCC(=O)N=S(C)(=O)c1ccc2c(c1)CN(C(C)(C)CCc1ccc(O)c(OC(C)(C)C)c1)C2 (stereo not shown) [Compound 3, N-((2-(4-(3-(tert-butoxy)-4-hydroxyphenyl)-2-methylbutan-2-yl)isoindol-5-yl)(methyl)(oxo)-26-thioimido) butanamide]	–	–	–	< 5.30	< 5.30	< 6.30	< 6.30
CCS(=O)(=NC(C)=O)c1ccc2c(c1)CN(C(C)(C)CCc1ccc(O)c(OC(C)(C)C)c1)C2 (stereo not shown) [Compound 4, N-((2-(4-(3-(tert-butoxy)-4-hydroxyphenyl)-2-methylbutan-2-yl)isoindol-5-yl)(ethyl)(oxo)-26-thioimido)acetamide]	–	–	–	< 6.00	< 6.00	< 7.00	< 7.00
CCC(=O)N=S(=O)(CC)c1ccc2c(c1)CN(C(C)(C)CCc1ccc(O)c(OC(C)(C)C)c1)C2 (stereo not shown) [Compound 5, N-((2-(4-(3-(tert-butoxy)-4-hydroxyphenyl)-2-methylbutan-2-yl)isoindol-5-yl)(ethyl)(oxo)-16-thioimido) propionamide]	–	–	–	< 6.00	< 6.00	< 7.00	< 7.00
CCCC(=O)N=S(=O)(CC)c1ccc2c(c1)CN(C(C)(C)CCc1ccc(O)c(OC(C)(C)C)c1)C2 (stereo not shown) [Compound 6, N-((2-(4-(3-(tert-butoxy)-4-hydroxyphenyl)-2-methylbutan-2-yl)isoindol-5-yl)(ethyl)(oxo)-26-thioimido) butyramide]	–	–	–	< 5.30	< 5.30	< 6.30	< 6.30
CCCS(=O)(=NC(C)=O)c1ccc2c(c1)CN(C(C)(C)CCc1ccc(O)c(OC(C)(C)C)c1)C2 (stereo not shown) [Compound 7, N-((2-(4-(3-(tert-butoxy)-4-hydroxyphenyl)-2-methylbutan-2-yl)isoindol-5-yl)(propyl)(oxo)-26-thioimino)acetamide]	–	–	–	< 5.30	< 5.30	< 6.30	< 6.30
CCCS(=O)(=NC(=O)CC)c1ccc2c(c1)CN(C(C)(C)CCc1ccc(O)c(OC(C)(C)C)c1)C2 (stereo not shown) [Compound 8, N-((2-(4-(3-(tert-butoxy)-4-hydroxyphenyl)-2-methylbutan-2-yl)isoindol-5-yl)(propyl)(oxo)-26-thioimido) propionamide]	–	–	–	< 5.30	< 5.30	< 6.30	< 6.30
CCCC(=O)N=S(=O)(CCC)c1ccc2c(c1)CN(C(C)(C)CCc1ccc(O)c(OC(C)(C)C)c1)C2 (stereo not shown) [Compound 9, N-((2-(4-(3-(tert-butoxy)-4-hydroxyphenyl)-2-methylbutan-2-yl)isoindol-5-yl)(propyl)(oxo)-26-thioimido) butanamide]	–	–	–	< 5.30	< 5.30	< 6.30	< 6.30
CCCCS(=O)(=NC(C)=O)c1ccc2c(c1)CN(C(C)(C)CCc1ccc(O)c(OC(C)(C)C)c1)C2 (stereo not shown) [Compound 10]	–	–	–	< 5.30	< 5.30	< 6.30	< 6.30
CCCCS(=O)(=NC(=O)CC)c1ccc2c(c1)CN(C(C)(C)CCc1ccc(O)c(OC(C)(C)C)c1)C2 (stereo not shown) [Compound 11, N-((2-(4-(3-(tert-butoxy)-4-hydroxyphenyl)-2-methylbutan-2-yl)isoindol-5-yl)(butyl)(oxo)-26-thioimido) propionamide]	–	–	–	< 5.30	< 5.30	< 6.30	< 6.30
CCCCS(=O)(=NC(=O)CCC)c1ccc2c(c1)CN(C(C)(C)CCc1ccc(O)c(OC(C)(C)C)c1)C2 (stereo not shown) [Compound 12, N-((2-(4-(3-(tert-butoxy)-4-hydroxyphenyl)-2-methylbutan-2-yl)isoindol-5-yl)(butyl)(oxo)-26-thiimido) butyramide]	–	–	–	< 5.30	< 5.30	< 6.30	< 6.30
CC(=O)N=S(=O)(CF)c1ccc2c(c1)CN(C(C)(C)CCc1ccc(O)c(OC(C)(C)C)c1)C2 (stereo not shown) [Compound 13, N-((2-(4-(3-(tert-butoxy)-4-hydroxyphenyl)-2-methylbutan-2-yl)isoindol-5-yl)(fluoromethyl)(oxo)-26-thioimido)acetamide]	–	–	–	< 6.00	< 6.00	< 7.00	< 7.00
CC(=O)N=S(=O)(CCCF)c1ccc2c(c1)CN(C(C)(C)CCc1ccc(O)c(OC(C)(C)C)c1)C2 (stereo not shown) [Compound 14]	–	–	–	< 5.30	< 5.30	< 6.30	< 6.30
CC(=O)N=S(=O)(CCCCF)c1ccc2c(c1)CN(C(C)(C)CCc1ccc(O)c(OC(C)(C)C)c1)C2 (stereo not shown) [Compound 15, N-((2-(4-(3-(tert-butoxy)-4-hydroxyphenyl)-2-methylbutan-2-yl)isoindol-5-yl)(fluoro-butyl)(oxo)-26-thioimido)acetamide]	–	–	–	< 5.30	< 5.30	< 6.30	< 6.30
CC(C)(C)Oc1cc(CCC(C)(C)N2Cc3ccc(S(C)(=N)=O)cc3C2)ccc1O (stereo not shown) [Compound 16]	–	–	–	< 7.00	< 7.00	> 7.00	> 7.00
CCS(=N)(=O)c1ccc2c(c1)CN(C(C)(C)CCc1ccc(O)c(OC(C)(C)C)c1)C2 (stereo not shown) [Compound 17]	–	–	–	< 7.00	< 7.00	> 7.00	> 7.00
CCCS(=N)(=O)c1ccc2c(c1)CN(C(C)(C)CCc1ccc(O)c(OC(C)(C)C)c1)C2 (stereo not shown) [Compound 18]	–	–	–	< 5.30	< 5.30	< 6.30	< 6.30
CCCCS(=N)(=O)c1ccc2c(c1)CN(C(C)(C)CCc1ccc(O)c(OC(C)(C)C)c1)C2 (stereo not shown) [Compound 19]	–	–	–	< 6.00	< 6.00	< 7.00	< 7.00
CC(C)(C)Oc1cc(CCC(C)(C)N2Cc3ccc(S(=N)(=O)CF)cc3C2)ccc1O (stereo not shown) [Compound 20]	–	–	–	< 7.00	< 7.00	> 7.00	> 7.00
CC(C)(C)Oc1cc(CCC(C)(C)N2Cc3ccc(S(=N)(=O)CCCF)cc3C2)ccc1O (stereo not shown) [Compound 21]	–	–	–	< 5.30	< 5.30	< 6.30	< 6.30
CC(C)(C)Oc1cc(CCC(C)(C)N2Cc3ccc(S(=N)(=O)CCCCF)cc3C2)ccc1O (stereo not shown) [Compound 22]	–	–	–	< 5.30	< 5.30	< 6.30	< 6.30
